# According to patent US8802711B2, “TRPV1 antagonists” (AbbVie Inc., priority 2011, dated 2014):
# Tests used:
# [1] = target: T1, human TRPV1 receptor (hTRPV1) (Homo sapiens (Human), UniProt Q8NER1); experiment: Capsaicin activation assay (FLIPR intracellular Ca2+); assay type: cell-based; details: Table 1; inhibition of capsaicin-induced intracellular Ca2+ increase, HEK293 cells expressing human TRPV1; read-out: hTRPV1 cap IC50
# Experimental: Dulbecco's modified Eagle medium (D-MEM) (with 4.5 mg/mL glucose) and fetal bovine serum were obtained from Hyclone Laboratories, Inc. (Logan, Utah). Dulbecco's phosphate-buffered saline (D-PBS) (with 1 mg/mL glucose and 3.6 mg/l Na pyruvate, without phenol red), L-glutamine, hygromycin B, and Lipofectamine® were obtained from Life Technologies (Grand Island, N.Y.). G418 sulfate was obtained from Calbiochem-Novabiochem Corp. (San Diego, Calif.). Capsaicin (8-methyl-N-vanillyl-6-nonenamide) was obtained from Sigma-Aldrich, Co. (St. Louis, Mo.). Fluo-4 AM (N-[4-[6-[(acetyloxy)methoxy]-2,7-difluoro-3-oxo-3H-xanthen-9-yl]-2-[2-[2-[bis[2-[(acetyloxy)methoxy]-2-oxyethyl]amino]-5-methyl phenoxy]ethoxy]phenyl]-N-[2-[(acetyloxy)methoxy]-2-oxyethyl]-glycine, (acetyloxy)methyl ester) was purchased from Molecular Probes (Eugene, Oreg.). […]
# The functional activity of compounds at the TRPV1 receptor was determined by measurement of intracellular Ca^2+ levels ([Ca^2+]i) using the Fluorescence Imaging Plate Reader (FLIPR)^TETRA®. All compounds were tested over a 12-point one-third-log concentration range. Compound stocks, 10 mM, were prepared in DMSO, and diluted serially across a 384-well plate using a Bravo BenchCel workstation (Agilent Technologies, Santa Clara, Calif.). A stock concentration of capsaicin (10 mM) was made in DMSO, and diluted in D-PBS to a final concentration of 200 nM (4×). On the day prior to the experiment, recombinant HEK293 cells that stably express human TRPV1 were removed from tissue culture flasks and plated in growth medium into black-walled clear-bottom 384-well Biocoat™ poly-D-lysine assay plates (BD Biosciences, Bedford, Mass.) using a Multidrop® dispenser (ThermoScientific, Waltham, Mass.). On the day of the experiment, growth medium was removed, and the no-wash FLIPR® Calcium-4 dye (λEX=470-495 nm, λEM=515-575 nm; Molecular Devices, Sunnyvale, Calif.) was added to each well using the Multidrop® dispenser. Cells were incubated for 90-120 minutes in the dark at room temperature. Test compounds were added to the cells 3 minutes prior to the addition of 200 nM capsaicin (4×), and the final assay volume was 80 μL. Fluorescence readings were made at 1 to 5 second intervals over the course of the experimental run. The peak increase in relative fluorescence units (minus baseline) was calculated, and expressed as a percentage of the 50 nM capsaicin (control) response.
# [2] = target: T1, human TRPV1 receptor (hTRPV1); experiment: Acid activation assay (pH 5.0, FLIPR intracellular Ca2+); assay type: cell-based; details: Table 1, 37.5 μM antagonist, percentage of the maximal pH 5.0-induced response remaining; for remaining activity at 37.5 µM: read-out: hTRPV1 H+ (max % remain)
# Experimental: Dulbecco's modified Eagle's medium (DMEM) with 4.5 mg/mL D-glucose, fetal bovine serum, L-glutamine, and 2-morpholinoethanesulfonic acid (MES) were purchased from Sigma-Aldrich Co. (St. Louis, Mo.). Dulbecco's phosphate-buffered saline (DPBS) with Ca^2+, Mg^2+, and 1 mg/mL D-glucose (pH 7.4), Geneticin®, 0.25% trypsin-1 mM EDTA, and penicillin-streptomycin were purchased from Invitrogen Corp. (Carlsbad, Calif.). The FLIPR® Calcium 4 assay kit was purchased from Molecular Devices (Sunnyvale, Calif.).
# The cDNAs for the human TRPV1 receptor (hTRPV1) were isolated by reverse transcriptase-polymerase chain reaction (RT-PCR) from human small intestine poly A+RNA supplied by Clontech (Palo Alto, Calif.) using primers designed surrounding the initiation and termination codons identical to the published sequences (Hayes et al. Pain 2000, 88, 205-215). The resulting cDNA PCR products were subcloned into pCIneo mammalian expression vector (Promega) and fully sequenced using fluorescent dye-terminator reagents (Prism, Perkin-Elmer Applied Biosystems Division) and a Perkin-Elmer Applied Biosystems Model 373 DNA sequencer or Model 310 genetic analyzer. Expression plasmids encoding the hTRPV1 cDNA were transfected individually into 1321N1 human astrocytoma cells using Lipofectamine. Forty-eight hours after transfection, the neomycin-resistant cells were selected with growth medium containing 800 μg/mL Geneticin (Gibco BRL). Surviving individual colonies were isolated and screened for TRPV1 receptor activity. Cells expressing recombinant homomeric TRPV1 receptors were maintained at 37° C. in DMEM containing 4 mM L-glutamine, 300 μg/mL G418 (Cal-biochem) and 10% fetal bovine serum under a humidified 5% CO2 atmosphere.
# The functional activity of compounds at the TRPV1 receptor was determined by measurement of intracellular Ca^2+ levels ([Ca^2+]i) using the Fluorescence Imaging Plate Reader (FLIPR)^TETRA®. All compounds were tested over a 12-point one-half-log concentration range. Compound stocks, 10 mM, were prepared in DMSO, and diluted serially across a 384-well plate using a Bravo BenchCel workstation (Agilent Technologies, Santa Clara, Calif.).
# On the day of the experiment growth medium was removed, and the no-wash FLIPR® Calcium-4 dye (λEX=470-495 nm, λEM=515-575 nm) was added to each well using the Multidrop® dispenser. Cells were incubated for 90-120 minutes in the dark at 25° C. Test compounds were dissolved in DMSO, and plates were prepared using an Agilent Bravo workstation (Agilent Technologies Inc., Santa Clara, Calif.). Compounds were added to the cells 3 minutes prior to the addition of a pH 5.0 solution. Reagents were delivered at a rate of 40 μL/sec, and the final assay volume was 80 μL. Acidic pH solutions were prepared by titration of DPBS/MES with 1 N HCl. The intensity of the fluorescence was captured and digitally transferred to an interfaced PC.
# T1 sequence (Q8NER1 whole entry): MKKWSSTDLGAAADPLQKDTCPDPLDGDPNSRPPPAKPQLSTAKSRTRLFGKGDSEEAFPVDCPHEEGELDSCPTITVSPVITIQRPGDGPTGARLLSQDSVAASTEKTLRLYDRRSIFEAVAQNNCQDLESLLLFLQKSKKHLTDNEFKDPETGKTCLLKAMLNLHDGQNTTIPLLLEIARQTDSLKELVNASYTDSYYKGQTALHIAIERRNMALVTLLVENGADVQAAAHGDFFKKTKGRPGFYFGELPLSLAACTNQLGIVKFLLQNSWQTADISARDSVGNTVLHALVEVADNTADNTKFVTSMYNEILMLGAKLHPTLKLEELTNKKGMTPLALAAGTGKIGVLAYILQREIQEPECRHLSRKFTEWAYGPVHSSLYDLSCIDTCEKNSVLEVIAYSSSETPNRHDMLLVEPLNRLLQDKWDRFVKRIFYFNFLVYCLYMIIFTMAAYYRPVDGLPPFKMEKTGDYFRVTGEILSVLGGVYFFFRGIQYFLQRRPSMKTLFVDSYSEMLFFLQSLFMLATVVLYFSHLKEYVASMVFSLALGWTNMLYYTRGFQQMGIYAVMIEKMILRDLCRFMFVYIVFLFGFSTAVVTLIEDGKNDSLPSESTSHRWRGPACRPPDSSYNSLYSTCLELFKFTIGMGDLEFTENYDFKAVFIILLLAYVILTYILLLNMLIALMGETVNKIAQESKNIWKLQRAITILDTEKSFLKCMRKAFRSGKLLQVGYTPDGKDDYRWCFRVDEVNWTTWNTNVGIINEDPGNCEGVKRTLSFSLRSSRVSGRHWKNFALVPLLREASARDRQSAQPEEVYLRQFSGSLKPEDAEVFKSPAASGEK
Compound,IC50 [1] [nM],remaining activity at 37.5 µM [2] [%],hTRPV1 H+ (max % remain) [2] [%]
"O=C(Nc1cccc2[nH]ncc12)N[C@H]1C[C@@H](c2ccccc2)[C@H](O)[C@@H]1O [Example 53, 1-((1S,2R,3S,4S)-2,3-dihydroxy-4-phenylcyclopentyl)-3-(1H-indazol-4-yl)urea]",> 37500,84,
"CN1C(=O)CCc2c(NC(=O)N[C@@H]3CC[C@H](c4ccccc4)C3)cccc21 [Example 94, 1-(1-methyl-2-oxo-1,2,3,4-tetrahydroquinolin-5-yl)-3-[(1R,3S)-3-phenylcyclopentyl]urea]",14,46,
"O=C(Nc1cccc2[nH]ncc12)N[C@H]1CC[C@@H](c2ccccc2F)C1 [Example 67, 1-[(1S,3R)-3-(2-fluorophenyl)cyclopentyl]-3-(1H-indazol-4-yl)urea]",11,18,
"Cn1c(=O)ccc2c(NC(=O)N[C@H]3CC[C@@H](c4ccccc4)C3)cccc21 [Example 50, 1-(1-methyl-2-oxo-1,2-dihydroquinolin-5-yl)-3-((1S,3R)-3-phenylcyclopentyl)urea]",78,59,
"O=C(Nc1cccc2[nH]ncc12)N[C@H]1CCC[C@H](c2ccc(C(F)(F)F)cc2)C1 [Example 32, 1-(1H-indazol-4-yl)-3-{(1S,3S)-3-[4-(trifluoromethyl)phenyl]cyclohexyl}urea]",795,32,
"O=C(Nc1cccc2[nH]ncc12)N[C@@H]1CC[C@@H](c2cccc(F)c2)C1 [Example 68, 1-[(1R,3R)-3-(3-fluorophenyl)cyclopentyl]-3-(1H-indazol-4-yl)urea]",48,41,
"O=C(Nc1cccc2c1CCC2)N[C@H]1CC[C@@H](c2ccccc2)C1 [Example 124, 1-(2,3-dihydro-1H-inden-4-yl)-3-[(1S,3R)-3-phenylcyclopentyl]urea]",6480,50,
"Cn1ncc2c(NC(=O)N[C@H]3CC[C@H](c4ccccc4)C3)cccc21 [Example 11, 1-(1-methyl-1H-indazol-4-yl)-3-[(1S,3S)-3-phenylcyclopentyl]urea]",84,49,
"C[C@H]1Oc2c(NC(=O)N[C@H]3CC[C@@H](c4ccccc4)C3)cccc2NC1=O [Example 24, 1-[(2R)-2-methyl-3-oxo-3,4-dihydro-2H-1,4-benzoxazin-8-yl]-3-[(1S,3R)-3-phenylcyclopentyl]urea]",85,1,
"O=C(Nc1cccc2c1C[C@H](O)CC2)N[C@@H]1CC[C@@H](c2ccccc2)C1 [Compound E, 1-[(7R)-7-hydroxy-5,6,7,8-tetrahydronaphthalen-1-yl]-3-[(1R,3R)-3-phenylcyclopentyl]urea, reference compound]",5,1,
"Cn1ncc2c(NC(=O)N[C@H]3CC[C@@H](c4cccc(F)c4)C3)cccc21 [Example 102, 1-[(1S,3R)-3-(3-fluorophenyl)cyclopentyl]-3-(1-methyl-1H-indazol-4-yl)urea]",218,34,
"Cc1cc2c(NC(=O)N[C@H]3CC[C@@H](c4ccccc4F)C3)c(F)ccc2cn1 [Example 83, 1-(6-fluoro-3-methylisoquinolin-5-yl)-3-[(1S,3R)-3-(2-fluorophenyl)cyclopentyl]urea]",5.3,48,
"O=C(Nc1cccc2[nH]ncc12)N[C@H]1CCC[C@H](c2ccccc2)C1 [Example 35, 1-(1H-indazol-4-yl)-3-[(1S,3S)-3-phenylcyclohexyl]urea]",292,11,
"O=C(Nc1cccc2c1C[C@H](O)C2)N[C@H]1CC[C@@H](c2cccc(F)c2)C1 [Example 91, 1-[(1S,3R)-3-(3-fluorophenyl)cyclopentyl]-3-[(2R)-2-hydroxy-2,3-dihydro-1H-inden-4-yl]urea]",338,63,
"Cn1ncc2c(NC(=O)N[C@H]3CC[C@@H](c4ccccc4F)C3)cccc21 [Example 104, 1-[(1S,3R)-3-(2-fluorophenyl)cyclopentyl]-3-(1-methyl-1H-indazol-4-yl)urea]",97,42,
"CN1C(=O)CCc2ccc(NC(=O)N[C@H]3CC[C@@H](c4ccccc4)C3)cc21 [Example 105, 1-(1-methyl-2-oxo-1,2,3,4-tetrahydroquinolin-7-yl)-3-[(1S,3R)-3-phenylcyclopentyl]urea]",956,91,
"O=C(Nc1cccc2[nH]ncc12)N[C@H]1C=C[C@@H](c2ccccc2)C1 [Example 63, 1-(1H-indazol-4-yl)-3-[(1R,4S)-4-phenylcyclopent-2-en-1-yl]urea]",122,38,
"O=C(Nc1cccc2[nH]ncc12)N[C@H]1CC[C@@](O)(c2ccccc2)C1 (relative stereo) [Example 58, 1-[(trans)-3-hydroxy-3-phenylcyclopentyl]-3-(1H-indazol-4-yl)urea]",8640,,53
"O=C(Nc1cccc2c1CCC2)N[C@@H]1CC[C@H](c2ccccc2)C1 [Example 111, 1-(2,3-dihydro-1H-inden-4-yl)-3-[(1R,3S)-3-phenylcyclopentyl]urea]",362,32,
"O=C1CCc2ccc(NC(=O)N[C@@H]3CC[C@@H](c4ccccc4)C3)cc2N1 [Example 19, 1-(2-oxo-1,2,3,4-tetrahydroquinolin-7-yl)-3-[(1R,3R)-3-phenylcyclopentyl]urea]",> 37500,81,
"CC(C)(C)c1ccc(C2CCCC(NC(=O)Nc3cccc4[nH]ncc34)C2)cc1 (stereo not shown) [Example 29, 1-[3-(4-tert-butylphenyl)cyclohexyl]-3-(1H-indazol-4-yl)urea]",1730,68,
"O=C1CCc2ccc(NC(=O)N[C@H]3CC[C@@H](c4ccccc4)C3)cc2N1 [Example 26, 1-(2-oxo-1,2,3,4-tetrahydroquinolin-7-yl)-3-[(1S,3R)-3-phenylcyclopentyl]urea]",544,65,
"Cc1cc2c(NC(=O)N[C@H]3CC[C@H](c4cccc(F)c4)C3)c(F)ccc2cn1 [Example 74, 1-(6-fluoro-3-methylisoquinolin-5-yl)-3-[(1S,3S)-3-(3-fluorophenyl)cyclopentyl]urea]",3.5,44,
